Source: patent US20240196899A1, “PESTICIDAL MIXTURES” (priority 2021, published 2024)
Like-named read-outs stand apart in the source and are kept apart here.

What was measured:
[1] = test system: Cotton Leafworm, S. littoralis; assay: Insecticidal % control against Cotton Leafworm, S. littoralis, Colby synergy; assay type: in vivo, Spodoptera littoralis; settings: 72 hours after treatment
Procedure: (§1) Colby's method is used to determine if synergy exists for a combination of active ingredients. According to Colby, the expected action (E) of active ingredients A+B is:
(§2) [formula] • where E=expected efficacy, A and B=the efficacy of two active ingredients A and B at a given dose.
(§3) When the percentage of control observed (O) for the combination is greater than the expected (E) percentage, there is a synergistic effect. The synergism ratio (R) is calculated as the ratio between the […].
(§4) The insecticidal compounds A (Novaluron) and B (mix partner) are formulated as equivalent suspension concentrates to eliminate the effects of differing formulation inerts on biological activity. Efficacy of the insecticidal compositions is evaluated with reference to a scale of 0% to 100% in comparison with untreated control plots. 0 means no damage and 100 means complete destruction of the harmful pests.
(§5) Likewise following experimentations were done on other mixtures of novaluron on various pests, the result of which are summarized in the below tables: […]

S. frugiperda = assay: Insecticidal % control against S. frugiperda, Colby synergy; assay type: in vivo, Spodoptera frugiperda; settings: 120 hours after treatment
Procedure: as §1, §2, §3, §4, §5

T. urticae = assay: Insecticidal % control against T. urticae, Colby synergy; assay type: in vivo, Tetranychus urticae
Procedure: as §1, §2, §3, §4, §5

M. persicae = assay: Insecticidal % control against M. persicae, Colby synergy; assay type: in vivo, Myzus persicae
Procedure: as §1, §2, §3, §4, §5

F. occidentalis = assay: Insecticidal % control against F. occidentalis, Colby synergy; assay type: in vivo, Frankliniella occidentalis
Procedure: as §1, §2, §3, §4, §5

B. tabaci = assay: Insecticidal % control against B. tabaci, Colby synergy; assay type: in vivo, Bemisia tabaci; settings: Table 7, 72 hours after treatment
Procedure: as §1, §2, §3, §4, §5

H. halys = assay: Insecticidal % control against H. halys, Colby synergy; assay type: in vivo, Halyomorpha halys; settings: Table 20 B; 144 hours after treatment; 5 ppm
Procedure: as §1, §2, §3, §4, §5

T. absoluta = assay: Insecticidal % control against T. absoluta, Colby synergy; assay type: in vivo, Tuta absoluta; settings: 72 hours after treatment
Procedure: as §1, §2, §3, §4, §5

[2] = test system: Spodoptera littoralis larvae; assay: Larval weight gain (LWG) of S. littoralis on treated castor bean leaves; assay type: in vivo; settings: Table 3
Procedure: (§6) The experiments were conducted by applying commercially available compositions of Novaluron (Rimon®) and methoxyfenozide (Runner®) alone or together. The compositions were diluted with water to the stated concentration of the active compound.
(§7) The following active ingredients and their mixtures were evaluated: • Novaluron: 0.01 mg a.i./liter • Methoxyfenozide: 0.01 mg a.i./liter • Novaluron+Methoxyfenozide 0.01 mg a.i./liter+0.01 mg a.i./liter
(§8) To evaluate the insecticidal control of novaluron and methoxyfenozide alone and in a binary mixture, castor bean leaves were treated with the above listed treatments. The treated leaves were exposed for 4-day feeding to 3rd-instar Spodoptera littoralis and the larvae were exposed for additional 4 days on untreated leaves. Larval mortality was determined at day 4 and 8. The treatments were composed of 3-5 replicates of 10 larvae each.
Larval weight gain (LWG) was also measured in order to determine the effectiveness of the mixture of novaluron and methoxyfenozide when compared to the solo application of novaluron and methoxyfenozide.
Table 3 below summarizes the larval weight gain (LWG) (compared to the control), that was determined 4 days after treatment for the mixture of novaluron and methoxyfenozide.

[3] = test system: Spodoptera littoralis larvae; assay: Larval mortality of S. littoralis fed on treated castor bean leaves (tank mix novaluron + methoxyfenozide), Colby synergy; assay type: in vivo; settings: Spodoptera littoralis, in Ricinus communis, Table 1, 0.01 mg a.i./L of each active
Procedure: as §1, §2, §3
A representative experiment was conducted to evaluate the insecticidal control of novaluron, a compound II, namely methoxyfenozide as well as a mixture of novaluron and methoxyfenozide against Spodoptera littoralis larvae.
as §6, §7, §8

A. gossypii = assay: Insecticidal % control against A. gossypii, Colby synergy; assay type: in vivo, Aphis gossypii; settings: 96 hours after treatment
Procedure: as §1, §2, §3, §4, §5

CNC(=O)c1cc(C#N)cc(C)c1NC(=O)c1cc(Cn2nnc(C(F)(F)F)n2)nn1-c1ncccc1Cl [Tetraniliprole]
Observed % control (O) ([1]; Table 10 B, 0.004 ppm): 7.5%
Observed % control (O) ([1]; Table 10 B, 0.02 ppm): 17.5%
Observed % control (O) ([1]; Table 10 B, 0.1 ppm): 95%
Observed % control (O) (S. frugiperda; Table 10 A, 0.001 ppm): 0%
Observed % control (O) (S. frugiperda; Table 10 A, 0.01 ppm): 0%

CCOC(=O)OC1=C(c2cc(C)ccc2C)C(=O)N[C@]12CC[C@@H](OC)CC2 [Spirotetramat]
Observed % control (O) (T. urticae; Table 6 C, 48 hours after treatment, 600 ppm): 8.0%
Observed % control (O) (T. urticae; Table 6 D, 72 hours after treatment, 6 ppm): 6.0%
Observed % control (O) (T. urticae; Table 6 D, 72 hours after treatment, 600 ppm): 14.0%
Observed % control (O) (T. urticae; Table 6 E, 7 days after treatment, 600 ppm): 16.2%
Observed % control (O) (M. persicae; Table 6 A, 72 hours after treatment, 100 ppm): 68%
Observed % control (O) (M. persicae; Table 6 B, 7 days after treatment, 100 ppm): 85.7%

CCOCn1c(-c2ccc(Cl)cc2)c(C#N)c(Br)c1C(F)(F)F [Chlorfenapyr]
Observed % control (O) (T. urticae; Table 14 A, 48 hours after treatment, 2.4 ppm): 64%
Observed % control (O) (T. urticae; Table 14 A, 48 hours after treatment, 24 ppm): 79%
Observed % control (O) (T. urticae; Table 14 B, 72 hours after treatment, 2.4 ppm): 78%
Observed % control (O) (T. urticae; Table 14 B, 72 hours after treatment, 24 ppm): 86%
Observed % control (O) (T. urticae; Table 14 C, 7 days after treatment, 2.4 ppm): 86%
Observed % control (O) (T. urticae; Table 14 C, 7 days after treatment, 24 ppm): 94%

Spinosad
Observed % control (O) (F. occidentalis; Table 4 A, 48 hours after treatment, 5.3 ppm): 2.0%
Observed % control (O) (F. occidentalis; Table 4 B, 72 hours after treatment, 5.3 ppm): 4.0%
Observed % control (O) (F. occidentalis; Table 4 B, 72 hours after treatment, 530 ppm): 32.0%
Observed % control (O) (F. occidentalis; Table 4 C, 7 days after treatment, 5.3 ppm): 32.0%
Observed % control (O) (F. occidentalis; Table 4 C, 7 days after treatment, 530 ppm): 60.0%

C[C@]1(COC(=O)C2CC2)[C@@H]2C[C@H](O)[C@@]3(C)Oc4cc(-c5cccnc5)oc(=O)c4[C@H](O)[C@@H]3[C@@]2(C)CC[C@@H]1OC(=O)C1CC1 [Afidopyropen]
Observed % control (O) (B. tabaci; 7 ppm): 35.1%
Observed % control (O) (B. tabaci; 35 ppm): 49.8%

N#Cc1nn(-c2c(Cl)cc(C(F)(F)F)cc2Cl)c(N)c1[S+]([O-])C(F)(F)F (centres unmarked) [Fipronil]
Observed % control (O) (F. occidentalis; Table 20 C, 48 hours after treatment, 1 ppm): 66.0%
Observed % control (O) (F. occidentalis; Table 20 D, 72 hours after treatment, 1 ppm): 70.0%
Observed % control (O) (F. occidentalis; Table 20 D, 72 hours after treatment, 100 ppm): 90.0%
Observed % control (O) (F. occidentalis; Table 20 E, 7 days after treatment, 1 ppm): 84.0%
Observed % control (O) ([1]; Table 20 A, 0.002 ppm): 0%
Observed % control (O) ([1]; Table 20 A, 0.02 ppm): 5%
Observed % control (O) (H. halys): 87.5%

CN/C(=N/CC1CCOC1)N[N+](=O)[O-] (centres unmarked) [Dinotefuran]
Observed % control (O) ([1]; Table 16, 0.04 ppm): 25%

Spinetoram
Observed % control (O) (F. occidentalis; Table 5 D, 48 hours after treatment, 3.5 ppm): 18.0%
Observed % control (O) (F. occidentalis; Table 5 D, 48 hours after treatment, 350 ppm): 78.0%
Observed % control (O) (F. occidentalis; Table 5 E, 72 hours after treatment, 3.5 ppm): 22.0%
Observed % control (O) (F. occidentalis; Table 5 E, 72 hours after treatment, 350 ppm): 82.0%
Observed % control (O) (F. occidentalis; Table 5 F, 7 days after treatment, 3.5 ppm): 30.0%
Observed % control (O) (F. occidentalis; Table 5 F, 7 days after treatment, 350 ppm): 82.0%
Observed % control (O) ([1]; Table 5 B, 0.004 ppm): 0%
Observed % control (O) ([1]; Table 5 B, 0.1 ppm): 80%
Observed % control (O) (T. absoluta; Table 5 C, 1 ppm): 50%
Observed % control (O) (T. absoluta; Table 5 C, 3 ppm): 33.3%
Observed % control (O) (T. absoluta; Table 5 C, 10 ppm): 83.3%
Observed % control (O) (S. frugiperda; Table 5 A, 0.01 ppm): 20%
Observed % control (O) (S. frugiperda; Table 5 A, 0.025 ppm): 30%
Observed % control (O) (S. frugiperda; Table 5 A, 0.05 ppm): 45%

COc1cccc(C(=O)NN(C(=O)c2cc(C)cc(C)c2)C(C)(C)C)c1C [Methoxyfenozide]
LWG % rel. Control ([2]; 4 days after treatment, 0.01 mg a.i./L of each active): 93 % rel. Control
effect on the weight gain of the Spodoptera littoralis larvae ([2]; applied alone): neither novaluron nor methoxyfenozide alone have any effect on the weight gain
mortality at 0.01 µg/mL ([3]; 96 h, 3rd-instar larvae, 4-day feeding on treated leaves, day 4, read-out: Larval mortality, % (observed) 4 d): 4.1%
mortality at 0.01 µg/mL ([3]; 4 days on treated then 4 days on untreated leaves, day 8, read-out: Larval mortality, % (observed) 8 d): 12%
Observed % control (O) (T. absoluta; Table 2, 3 ppm): 16.7%

CCOC(=O)CC(SP(=S)(OC)OC)C(=O)OCC (centres unmarked) [Malathion]
Observed % control (O) (F. occidentalis; Table 18 B, 72 hours after treatment, 5 ppm): 6.0%
Observed % control (O) (F. occidentalis; Table 18 B, 72 hours after treatment, 500 ppm): 80.0%
Observed % control (O) (A. gossypii; Table 18 A, 100 ppm): 81.7%

Cc1cc(C)c(C2=C(OC(=O)CC(C)(C)C)C3(CCCC3)OC2=O)c(C)c1 [Spiromesifen]
Observed % control (O) (M. persicae; Table 19 B, 7 days after treatment, 5 ppm): 58.3%
Observed % control (O) (A. gossypii; Table 19 A, 500 ppm): 75.3%

CN(C(=O)c1ccccc1)c1cccc(C(=O)Nc2c(Br)cc(C(F)(C(F)(F)F)C(F)(F)F)cc2C(F)(F)F)c1F [Broflanilide]
Observed % control (O) (S. frugiperda; Table 9, 0.001 ppm): 10%
Observed % control (O) (S. frugiperda; Table 9, 0.01 ppm): 20%

COP(=O)(NC(C)=O)SC (centres unmarked) [Acephate]
Observed % control (O) (M. persicae; Table 17 A, 72 hours after treatment, 2 ppm): 66%
Observed % control (O) (M. persicae; Table 17 B, 7 days after treatment, 2 ppm): 75.0%

CCN(C(=O)CCSCCC(F)(F)F)c1cn(-c2cccnc2)nc1Cl [Tyclopyrazoflor]
Observed % control (O) ([1]; Table 13, 12 ppm): 12.5%

Dicloromezotiaz
Observed % control (O) ([1]; Table 11, 12 ppm): 0%

CC(c1ccc(C(F)(F)F)nc1)S(C)(=O)=NC#N (centres unmarked) [Sulfoxaflor]
Observed % control (O) (M. persicae; Table 15 A, 48 hours after treatment, 0.5 ppm): 64%
Observed % control (O) (M. persicae; Table 15 B, 72 hours after treatment, 0.5 ppm): 70%
Observed % control (O) (M. persicae; Table 15 B, 72 hours after treatment, 2.5 ppm): 82%

CN(C(=O)c1cc(-c2cnn(-c3c(Cl)cc(C(F)(C(F)(F)F)C(F)(F)F)cc3Cl)c2)cnc1Cl)C1CC1 [Nicofluprole]
Observed % control (O) ([1]; Table 21, 12 ppm): 0%

CCN1OCC(NC(=O)c2ccc(C3=NOC(c4cc(Cl)c(F)c(Cl)c4)(C(F)(F)F)C3)cc2C)C1=O (centres unmarked) [Isocycloseram]
Observed % control (O) ([1]; Table 8, 12 ppm): 12.5%

O=C(N=c1ccccn1Cc1ccc(Cl)nc1)C(F)(F)F [Flupyrimin]
Observed % control (O) ([1]; Table 12, 12 ppm): 0%
